Test results as given in patent US20250352520A1, “USE OF DEXPRAMIPEXOLE FOR THE TREATMENT OF EOSINOPHILIC COPD” (Areteia Therapeutics, Inc., priority 2024, published 2025).
Where two headings read alike, the source gives them in different places.

What was measured:
[1] = Phase III, participants with ALS; cited from earlier work
[2] = for CT Scan - Mucus Score, Change from Baseline / CT Scan - Mucus Score, Result: Week 16
Source text: Mucus dysfunction, a central pathology in patients with COPD, is characterized by excess mucus production, hypersecretion, and reduced clearance, leading to accumulation in the airways as mucus plugs. Computed tomography (CT) scans of individuals with COPD can be assessed by a physician or clinician trained in lung imaging. Mucus plug scoring is assigned based on the number of lung segments with mucus plugs, ranging from 0 (no mucus plugs seen on CT scan) to 20 (all lung segments with mucus plugs).
(§1) All eligible participants received inspiratory and expiratory CT scans at Baseline and at Week 16 to assess for changes in mucus plugs and airway architecture (e.g., changes in airway wall thickness).
[…] underwent at CT scan with mucus plug scoring.

[3] = for SGRQ-C Questionnaire - Total Score, CFB (Change from baseline), Max / SGRQ-C Questionnaire - Total Score, CFB (Change from baseline), Mean ± SD / SGRQ-C Questionnaire - Total Score, CFB (Change from baseline), Median / SGRQ-C Questionnaire - Total Score, CFB (Change from baseline), Min / SGRQ-C Questionnaire - Total Score, CFB (Change from baseline), Q1 / SGRQ-C Questionnaire - Total Score, CFB (Change from baseline), Q3 / SGRQ-C Questionnaire - Total Score, Observed, Max / SGRQ-C Questionnaire - Total Score, Observed, Mean ± SD / SGRQ-C Questionnaire - Total Score, Observed, Median / SGRQ-C Questionnaire - Total Score, Observed, Min / SGRQ-C Questionnaire - Total Score, Observed, Q1 / SGRQ-C Questionnaire - Total Score, Observed, Q3: Week 16, 150 mg BID
Source text: The SGRQ-C questionnaire was developed from the SGRQ which was designed to measure health impairment in patients with asthma and COPD. The SGRQ-C is a shorter version (40 items compared with 50 items in SGRQ) derived from the original version following detailed analysis of data from large studies in COPD. The FDA has stated that the SGRQ-C is acceptable for use as either a co-primary endpoint or as a secondary endpoint providing supporting evidence of efficacy in a clinical trial. In this study, assessment of SGRQ-C was a secondary endpoint.
The SGRQ-C total score is made up of three components: (1) symptoms frequency and severity of symptoms; (2) activity effect of disease on common daily physical activities; and (3) impacts psychosocial effects of the disease.
The threshold for a clinically significant difference between groups of participants and for changes within groups of participants was four units.

[4] = across the dose groups at various time-points
[5] = 150 mg BID; participants with ALS and EADs; cited from earlier work
[6] = for CT Scan - Small Airways Disease, Change from Baseline / CT Scan - Small Airways Disease, Result / CT Scan Parametric Imaging - Emphysema, Change from Baseline / CT Scan Parametric Imaging - Emphysema, Result / CT Scan - Air Trapping Index -856 HU, Change from Baseline / CT Scan - Air Trapping Index -856 HU, Result: Week 16; for CT Scan - Air Trapping Index -856 HU, Change from Baseline: first Change column under heads Inspiratory | Expiratory; for CT Scan - Air Trapping Index -856 HU, Result: first Result column under heads Inspiratory | Expiratory
Source text: as §1

[7] = <50% AEC reduction at Week 16 (N = 4)
[8] = >=50% AEC reduction at Week 16 (N = 3)

## CCCN[C@@H]1CCc2nc(N)sc2C1 [Dexpramipexole, (6R)-2-amino-4,5,6,7-tetrahydro-6-(propylamino)benzothiazole]
[1]
  absolute eosinophil count (AEC): substantial, durable, and targeted reduction
  efficacy in ALS: failed to demonstrate efficacy
[2]; Subject ID 10001-001-0001
  CT Scan - Mucus Score, Change from Baseline: 0.00
  CT Scan - Mucus Score, Result: 1.00
[2]; Subject ID 10001-001-0002
  CT Scan - Mucus Score, Change from Baseline: 0.00
  CT Scan - Mucus Score, Result: 0.00
[2]; Subject ID 10001-008-0002
  CT Scan - Mucus Score, Change from Baseline: 3.00
  CT Scan - Mucus Score, Result: 3.00
[2]; Subject ID 10001-010-0005
  CT Scan - Mucus Score, Change from Baseline: 0.00
  CT Scan - Mucus Score, Result: 0.00
[2]; Subject ID 10001-022-0001
  CT Scan - Mucus Score, Change from Baseline: −4.00
  CT Scan - Mucus Score, Result: 0.00
[2]; Subject ID 10001-022-0006
  CT Scan - Mucus Score, Change from Baseline: 3.00
  CT Scan - Mucus Score, Result: 6.00
[2]; one patient, week 16, score of 4 at baseline
  mucus plug score: 0
[3]; AECR≥0.5 patients, 16 weeks
  SGRQ-C total score, decrease compared to baseline: 12.08 points
[3]; [7]
  SGRQ-C Questionnaire - Total Score, CFB (Change from baseline), Max: 3.9
  SGRQ-C Questionnaire - Total Score, CFB (Change from baseline), Mean ± SD: −4.15 ± 6.817
  SGRQ-C Questionnaire - Total Score, CFB (Change from baseline), Median: −5.18
  SGRQ-C Questionnaire - Total Score, CFB (Change from baseline), Min: −10.1
  SGRQ-C Questionnaire - Total Score, CFB (Change from baseline), Q1: −9.8
  SGRQ-C Questionnaire - Total Score, CFB (Change from baseline), Q3: 1.5
  SGRQ-C Questionnaire - Total Score, Observed, Max: 63.2
  SGRQ-C Questionnaire - Total Score, Observed, Mean ± SD: 45.45 ± 19.893
  SGRQ-C Questionnaire - Total Score, Observed, Median: 50.64
  SGRQ-C Questionnaire - Total Score, Observed, Min: 17.3
  SGRQ-C Questionnaire - Total Score, Observed, Q1: 32.1
  SGRQ-C Questionnaire - Total Score, Observed, Q3: 58.8
[3]; [8]
  SGRQ-C Questionnaire - Total Score, CFB (Change from baseline), Max: −6.2
  SGRQ-C Questionnaire - Total Score, CFB (Change from baseline), Mean ± SD: −12.08 ± 5.544
  SGRQ-C Questionnaire - Total Score, CFB (Change from baseline), Median: −12.76
  SGRQ-C Questionnaire - Total Score, CFB (Change from baseline), Min: −17.2
  SGRQ-C Questionnaire - Total Score, CFB (Change from baseline), Q1: −17.2
  SGRQ-C Questionnaire - Total Score, CFB (Change from baseline), Q3: −6.2
  SGRQ-C Questionnaire - Total Score, Observed, Max: 45.0
  SGRQ-C Questionnaire - Total Score, Observed, Mean ± SD: 40.39 ± 7.250
  SGRQ-C Questionnaire - Total Score, Observed, Median: 44.09
  SGRQ-C Questionnaire - Total Score, Observed, Min: 32.0
  SGRQ-C Questionnaire - Total Score, Observed, Q1: 32.0
  SGRQ-C Questionnaire - Total Score, Observed, Q3: 45.0
[4]
  placebo-corrected change from baseline in pre-BD FEV1: clinically meaningful
[5]
  safety profile: favorable safety profile
[6]; Subject ID 10001-001-0001
  CT Scan - Small Airways Disease, Change from Baseline: −7.12
  CT Scan - Small Airways Disease, Result: 25.72
  CT Scan Parametric Imaging - Emphysema, Change from Baseline: 2.41
  CT Scan Parametric Imaging - Emphysema, Result: 36.28
  CT Scan - Air Trapping Index -856 HU, Change from Baseline: −0.29%
  CT Scan - Air Trapping Index -856 HU, Result: 49.57%
[6]; Subject ID 10001-008-0002
  CT Scan - Small Airways Disease, Change from Baseline: 2.18
  CT Scan - Small Airways Disease, Result: 51.14
  CT Scan Parametric Imaging - Emphysema, Change from Baseline: −0.73
  CT Scan Parametric Imaging - Emphysema, Result: 35.88
  CT Scan - Air Trapping Index -856 HU, Change from Baseline: 0.57%
  CT Scan - Air Trapping Index -856 HU, Result: 68.06%
[6]; Subject ID 10001-010-0005
  CT Scan - Small Airways Disease, Change from Baseline: −3.80
  CT Scan - Small Airways Disease, Result: 39.08
  CT Scan Parametric Imaging - Emphysema, Change from Baseline: 0.16
  CT Scan Parametric Imaging - Emphysema, Result: 12.11
  CT Scan - Air Trapping Index -856 HU, Change from Baseline: −2.18%
  CT Scan - Air Trapping Index -856 HU, Result: 29.57%
[6]; Subject ID 10001-022-0001
  CT Scan - Small Airways Disease, Change from Baseline: −4.12
  CT Scan - Small Airways Disease, Result: 46.36
  CT Scan Parametric Imaging - Emphysema, Change from Baseline: −4.75
  CT Scan Parametric Imaging - Emphysema, Result: 8.59
  CT Scan - Air Trapping Index -856 HU, Change from Baseline: −11.40%
  CT Scan - Air Trapping Index -856 HU, Result: 27.88%
[6]; all patients
  CT scoring for small airway disease: All patients showed an improvement in scoring
[6]; one patient
  CT scoring for Air Trapping, change: −11.40
  CT scoring for emphysema, decrease: 4.75 points
  CT scoring for small airway disease, improvement: 7.12 points
